Data from patent US20230101335A1, “EX VIVO TISSUE EXPLANT AND GRAFT PLATFORM AND USES THEREOF” (Massachusetts Institute of Technology, priority 2021, published 2023).
Where two headings read alike, the source gives them in different places. One block for each compound: values may come before it.

How the values were obtained:
[1] = test system: CRC organoids (APC−/TP53−/SMAD4− triple knockout); experiment: CellTiter-Glo cytotoxicity assay on CRISPR-engineered CRC organoids; conditions: read-out: IC50 (uM) ± SD
Colo320DM cells = experiment: CellTiter-Glo Luminescent cell viability assay; type: cell-based; conditions: System: Cell (Colo320DM)
Caco2 cells = experiment: CellTiter-Glo Luminescent cell viability assay; type: cell-based; conditions: Homo sapiens, Caco-2; System: Cell (Caco2)
HCT15 cells = experiment: CellTiter-Glo Luminescent cell viability assay; type: cell-based; conditions: System: Cell (HCT15)
[2] = test system: CRC organoids engrafted in swine small intestine tissue; experiment: ex vivo CRC organoid-in-intestine platform, GFP+ tumor cells by flow cytometry; type: cell-based; conditions: for IC50: System: Tissue (pig ex vivo colorectal cancer platform), 24 hours drug treatment
HT29 cells = experiment: CellTiter-Glo Luminescent cell viability assay; type: cell-based; conditions: Homo sapiens, HT-29; System: Cell (HT29)
P-gp = P-gp (Homo sapiens, UniProt P08183); conditions: previous work; cited from earlier work
P-gp, sequence (P08183 whole entry): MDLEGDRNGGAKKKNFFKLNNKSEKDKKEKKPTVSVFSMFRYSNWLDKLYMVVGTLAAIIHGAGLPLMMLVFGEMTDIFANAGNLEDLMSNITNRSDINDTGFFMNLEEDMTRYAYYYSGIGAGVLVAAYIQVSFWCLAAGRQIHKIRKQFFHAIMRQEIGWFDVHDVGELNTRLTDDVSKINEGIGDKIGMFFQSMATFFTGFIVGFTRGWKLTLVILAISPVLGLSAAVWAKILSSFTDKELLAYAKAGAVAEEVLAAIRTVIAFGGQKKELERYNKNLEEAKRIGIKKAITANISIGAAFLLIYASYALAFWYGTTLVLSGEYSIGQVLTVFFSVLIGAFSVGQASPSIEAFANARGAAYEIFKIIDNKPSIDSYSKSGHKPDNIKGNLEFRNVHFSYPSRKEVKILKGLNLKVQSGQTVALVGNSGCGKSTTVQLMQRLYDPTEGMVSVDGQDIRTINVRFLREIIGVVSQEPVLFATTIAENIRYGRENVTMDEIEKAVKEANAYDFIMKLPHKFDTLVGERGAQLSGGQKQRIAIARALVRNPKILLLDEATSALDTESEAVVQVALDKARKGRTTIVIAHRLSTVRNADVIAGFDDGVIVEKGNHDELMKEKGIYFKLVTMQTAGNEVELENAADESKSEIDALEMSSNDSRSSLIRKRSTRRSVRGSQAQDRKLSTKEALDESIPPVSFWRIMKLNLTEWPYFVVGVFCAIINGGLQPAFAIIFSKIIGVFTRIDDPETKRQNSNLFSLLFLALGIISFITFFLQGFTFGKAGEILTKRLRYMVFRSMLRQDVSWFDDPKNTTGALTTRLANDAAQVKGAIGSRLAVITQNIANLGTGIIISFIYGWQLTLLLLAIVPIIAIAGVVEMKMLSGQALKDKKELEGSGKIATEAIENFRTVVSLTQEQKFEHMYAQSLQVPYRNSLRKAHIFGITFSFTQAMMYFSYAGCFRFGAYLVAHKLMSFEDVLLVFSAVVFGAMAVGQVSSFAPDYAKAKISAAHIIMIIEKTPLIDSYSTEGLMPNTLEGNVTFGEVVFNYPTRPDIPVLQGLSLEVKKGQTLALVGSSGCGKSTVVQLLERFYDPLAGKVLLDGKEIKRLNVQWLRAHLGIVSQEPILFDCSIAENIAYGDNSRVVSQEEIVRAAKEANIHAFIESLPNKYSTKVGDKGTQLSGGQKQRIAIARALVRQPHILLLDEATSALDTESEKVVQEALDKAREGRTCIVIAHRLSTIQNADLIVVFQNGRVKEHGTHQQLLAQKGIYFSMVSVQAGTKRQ

Compound: COc1cccc2c1C(=O)c1c(O)c3c(c(O)c1C2=O)C[C@@](O)(C(=O)CO)C[C@@H]3O[C@H]1C[C@H](N)[C@H](O)[C@H](C)O1 [Doxirubicine, doxorubicin]
- IC50 ([1]; Sus scrofa): 10.1 ± 2.33 µM
- IC50 (Colo320DM cells; Homo sapiens, COLO 320DM): 6.99 ± 1.23 µM
- IC50 (Caco2 cells): 2.85 ± 0.712 µM
- IC50 (HCT15 cells; Homo sapiens, HCT-15): 1.51 ± 0.226 µM
- IC50 ([2]; Sus scrofa): 0.739 ± 0.082 µM
- IC50 (HT29 cells): 3.88 ± 2.13 µM

- IC50 ([2]; Sus scrofa): 0.499 ± 0.087 µM
Compound: CS(=O)(=O)CCNCc1ccc(-c2ccc3ncnc(Nc4ccc(OCc5cccc(F)c5)c(Cl)c4)c3c2)o1 [Lapatinib, lapatinib]
- IC50 ([1]; Sus scrofa): 0.39 ± 0.21 µM

Compound: O=C1[O][Pt]2([NH][C@@H]3CCCC[C@H]3[NH]2)[O]C1=O [Oxiliplatin, oxaliplatin]
- IC50 ([1]; System: Organoid (without transplantation into tissue)): 18 ± 4.72 µM
- IC50 (Colo320DM cells): 10.5 ± 1.71 µM
- IC50 (HCT15 cells): 15.5 ± 4.99 µM
- IC50 [2]: 8.61 ± 3.38 µM

Compound: vitamin A
- P-gp inhibition and drug uptake (P-gp): inhibit P-gp and increase drug uptake
- potency of irinotecan in combination with predicted P-gp modulator ([2]; ex vivo CRC platform, FIGS. 8B-8C, one-way ANOVA p<0.05): significantly increased the potency irinotecan
